Reference: patent US20080008991A1, “SYSTEM AND METHOD FOR OPTIMIZING DRUG THERAPY FOR THE TREATMENT OF DISEASES” (priority 2000, published 2008)
Like-named read-outs stand apart in the source and are kept apart here.

Assays:
HIV = conditions: lopinavir plus efavirenz and 2 NRTIs, cited from earlier work
[1] = Amprenavir plasma trough concentration by LC-MS/MS in treatment-experienced patients; conditions: human, in vivo; median; 12 hours after dosing; amprenavir 1200 mg bid with ritonavir or nelfinavir; 17 patients; read-out: Cmin
Procedure: Patients were enrolled into three parallel treatment groups that included abacavir 300 mg bid, amprenavir 1200 mg bid, and efavirenz 600 mg daily with either low dose ritonavir at 200 mg BID, high dose ritonavir at 500 mg bid, or nelfinavir 1250 mg bid.
Genotyping (VircoGEN II™, VIRCO) and VIRTUAL PHENOTYPE™ were performed on baseline samples. Viral load data were collected at baseline (mean of two pre-therapy samples) and at week 24. Serial pharmacokinetic samples were collected over 12 hours after week 3 for ritonavir-boosted regimens and after week 2 for nelfinavir-boosted regimens.
Amprenavir concentrations in plasma were determined by a validated LC-MS/MS method.
For amprenavir, nelfinavir, and ritonavir, the concentration 12 hours after dosing was used as the Cmin. For each drug, relationships between viral load change at week 24 and the Cmin, fold-change in resistance, and NIQ were fit to a sigmoidal maximum effect model.

HIV-1 = experiment: NIQ as predictor of virologic outcome at week 24; assay type: in vivo, human (patients)
Procedure: The normalized inhibitory quotient (NIQ) was determined as: [formula]
Where the IQ in an individual patient (IQpatient) was calculated as ratio of the patient's trough concentration (Cmin) to the susceptibility of the patient's virus to the drug, expressed as fold change compared to wild type virus (Virtual Phenotype). The IQpt was then related to the reference inhibitory quotient (IQref), in which the mean population trough concentration of the drug from the product label was divided by the cut-off value of the fold change for susceptible viruses.
For amprenavir, nelfinavir, and ritonavir, the concentration 12 hours after dosing was used as the Cmin. […]

Structure (SMILES)	% of patients with viral load below 400 copies/mL at week 24 (HIV; lopinavir IQ 4-15) [%]	% of patients with viral load below 400 copies/mL at week 24 (HIV; lopinavir IQ <4) [%]	% of patients with viral load below 400 copies/mL at week 24 (HIV; lopinavir IQ >15) [%]	concentration at 12 h [1] [ng/mL]	patients with decrease in viral load to <400 copies/ml at week 24 (HIV-1; patients achieving NIQ>3.0)	patients with decrease in viral load to <400 copies/ml at week 24 (HIV-1; patients with NIQ<3.0)
Cc1cccc(C)c1OCC(=O)N[C@@H](Cc1ccccc1)[C@@H](O)C[C@H](Cc1ccccc1)NC(=O)[C@H](C(C)C)N1CCCNC1=O [lopinavir]	80	70	100	–	–	–
CC(C)CN(C[C@@H](O)[C@H](Cc1ccccc1)NC(=O)O[C@H]1CCOC1)S(=O)(=O)c1ccc(N)cc1 [Amprenavir, amprenavir]	–	–	–	1270	7/8	1/9
